In patent US6071954A, “(methylsulfonyl)phenyl-2-(5H)-furanones with oxygen link as COX-2 inhibitors” (Merk Frosst Canada, Inc., priority 1998, dated 2000) one finds IC50 and ED50 data, which are given here for 3 compounds.

SMILES strings stand for the structures.

Assay [1] has as its target T1, COX-2 (Homo sapiens, UniProt P35354).
T1 sequence (P35354 18-604): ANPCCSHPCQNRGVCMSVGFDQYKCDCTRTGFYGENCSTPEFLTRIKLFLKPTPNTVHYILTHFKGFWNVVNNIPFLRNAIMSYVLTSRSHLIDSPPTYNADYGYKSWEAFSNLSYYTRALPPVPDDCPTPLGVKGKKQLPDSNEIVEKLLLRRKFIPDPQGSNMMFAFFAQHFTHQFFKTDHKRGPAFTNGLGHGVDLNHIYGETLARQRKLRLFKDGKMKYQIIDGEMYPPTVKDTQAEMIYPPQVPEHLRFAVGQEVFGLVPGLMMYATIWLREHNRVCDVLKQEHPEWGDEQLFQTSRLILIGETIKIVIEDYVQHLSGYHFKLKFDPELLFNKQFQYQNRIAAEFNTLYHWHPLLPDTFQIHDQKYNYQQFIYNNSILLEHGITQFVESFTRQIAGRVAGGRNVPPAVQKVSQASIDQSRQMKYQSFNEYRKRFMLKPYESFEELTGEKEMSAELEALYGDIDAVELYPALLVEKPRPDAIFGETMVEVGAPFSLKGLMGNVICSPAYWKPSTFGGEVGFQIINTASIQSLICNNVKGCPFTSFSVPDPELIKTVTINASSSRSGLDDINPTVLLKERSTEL
The assay is described as follows: Whole cell assay for COX-2 using CHO transfected cell lines (CHO[hCOX-2]). It is filed as cell-based. Further details: expressed in transfected cells; CHO[hCOX-2]. Particulars: CHO[hCOX-2] cells, PGE2 synthesis in response to arachidonic acid. How it is done: Compounds are tested as inhibitors of cyclooxygenase activity in whole cell cyclooxygenase assays. These assays measure prostaglandin E2 synthesis in response to arachidonic acid, using a radioimmunoassay. Cells used for these assays are chinese hamster ovary (CHO) cell lines which have been stably transfected with an eukaryotic expression vector […] containing either the human Cox-1 or Cox-2 CDNA's. U937 cell microsomes are also used to measure Cox-1 activity.
Chinese hamster ovary (CHO) cell lines which have been stably transfected with an eukaryotic expression vector pCDNAIII containing either the human COX-1 or COX-2 cDNA's are used for the assay. These cell lines are referred to as CHO [hCOX-1] and CHO [hCOX-2], respectively. […] Drugs to be tested are dissolved in DMSO to 66.7-fold the highest test drug concentration. […] Cells (0.3×10^6 cells in 200 μl) are preincubated with 3 μl of the test drug or DMSO vehicle for 15 min at 37° C.
In the assay, inhibition is determined by measuring the amount of prostaglandin E2 (PGE2) synthesized in the presence of arachidonic acid, cyclooxygenase-1 or cyclooxygenase-2 and a putative inhibitor.

Assay [2] addresses T1, COX-2. Briefly: Human whole blood assay, COX-2 (LPS-induced PGE2 production). Details: incubation of human whole blood with LPS, which induces COX-2; endogenous in cells; host or cells: fresh heparinized whole blood of human volunteers, LPS-stimulated. The assay is classed as cell-based. Particulars: LPS-induced PGE2, 24 hours at 37° C, read-out: COX-2 (IC50) HWB. An excerpt:
As well, platelets in whole blood contain a large amount of the COX-1 enzyme. Immediately following blood clotting, platelets are activated through a thrombin-mediated mechanism. This reaction results in the production of thromboxane B2 (TxB2) via activation of COX-1. Thus, the effect of test compounds on TxB2 levels following blood clotting can be examined and used as an index for COX-1 activity. Therefore, the degree of selectivity by the test compound can be determined by measuring the levels of PGE2 after LPS induction (COX-2) and TxB2 following blood clotting (COX-1) in the same assay. A. COX-2 (LPS-induced PGE2 production) Fresh blood is collected in heparinized tubes by venipuncture from both male and female volunteers. The subjects have no apparent inflammatory conditions and have not taken any NSAIDs for at least 7 days prior to blood collection. Plasma is immediately obtained from a 2 mL blood aliquot to use as blank (basal levels of PGE2). […] The supernatant is obtained and is assayed for PGE2 using a radioimmunoassay kit (Amersham, RPA#530) after conversion of PGE2 to its methyl oximate derivative according to the manufacturer's procedure.

For assay [3], the system named is Rat Paw Edema. Briefly: Rat paw edema assay (carrageenan). The assay is classed as in vivo, rat (male Sprague-Dawley). The note with it: po, 1 hr before carrageenan, paw volume 3 hr later. Here is the method: Male Sprague-Dawley rats (150-200 g) are fasted overnight and are given, po, either vehicle (1% methocel or 5% Tween 80) or a test compound. One hr later, a line is drawn using a permanent marker at the level above the ankle in one hind paw to define the area of the paw to be monitored. The paw volume (V0) is measured using a plethysmometer (Ugo-Basile, Italy) based on the principle of water displacement. The animals are then injected subplantarly with […] of 1% carrageenan solution in saline (FMC Corp, Maine) into the paw using an insulin syringe with a 25-gauge needle (i.e. […] carrageenan per paw). Three hr later, the paw volume (V3) is measured and the increases in paw volume (V3 -V0) are calculated. The animals are sacrificed by CO2 asphyxiation and the absence or presence of stomach lesions scored. Data is compared with the vehicle-control values and percent inhibition calculated. All treatment groups are coded to eliminate observer bias.

A word on the IC50: it is the concentration needed to halve the response being measured. Take `C[C@H](O)[C@@H](C)OC1=C(c2ccc(S(C)(=O)=O)cc2)C(C)(C)OC1=O` (relative stereo) [Example 4]: the IC50 in assay [1] was determined as 600 nM; in assay [2], 900 nM.
What is called ED50 is the dose that gives a 50% effect, or the effect in half of the subjects. Take `CC1(C)OC(=O)C(OC(C(F)(F)F)C(F)(F)F)=C1c1ccc(S(C)(=O)=O)cc1` [Example 2, 5,5-Dimethyl-3-(1,1,1,3,3,3-hexafluoropropoxy)-4-(4-methylsulfonylphenyl)-5H-furan-2-one]: the ED50 in assay [3] is 1 mg/kg.
On the same count and under the same terms, with `CC1(C)OC(=O)C(OC2CCC(F)(F)CC2)=C1c1ccc(S(C)(=O)=O)cc1` [Example 17] the figure was 0.9 mg/kg.
